Measurements reported in patent US20230009608A1, “GRK2 INHIBITORS AND USES THEREOF” (Cygnal Therapeutics, Inc., priority 2020, published 2023).
Where two headings read alike, the source gives them in different places.

Legend:
[1] = target: T1, GRK2 (Homo sapiens, UniProt P25098); experiment: ADPGlo GRK2 Inhibition Assay (Example 8); type: biochemical; conditions: read-out: A: Enzymatic GRK2: IC50 (nM) (Example 8)
T1 construct: purchased SignalChem A14-10G
T1 sequence (P25098 1-689): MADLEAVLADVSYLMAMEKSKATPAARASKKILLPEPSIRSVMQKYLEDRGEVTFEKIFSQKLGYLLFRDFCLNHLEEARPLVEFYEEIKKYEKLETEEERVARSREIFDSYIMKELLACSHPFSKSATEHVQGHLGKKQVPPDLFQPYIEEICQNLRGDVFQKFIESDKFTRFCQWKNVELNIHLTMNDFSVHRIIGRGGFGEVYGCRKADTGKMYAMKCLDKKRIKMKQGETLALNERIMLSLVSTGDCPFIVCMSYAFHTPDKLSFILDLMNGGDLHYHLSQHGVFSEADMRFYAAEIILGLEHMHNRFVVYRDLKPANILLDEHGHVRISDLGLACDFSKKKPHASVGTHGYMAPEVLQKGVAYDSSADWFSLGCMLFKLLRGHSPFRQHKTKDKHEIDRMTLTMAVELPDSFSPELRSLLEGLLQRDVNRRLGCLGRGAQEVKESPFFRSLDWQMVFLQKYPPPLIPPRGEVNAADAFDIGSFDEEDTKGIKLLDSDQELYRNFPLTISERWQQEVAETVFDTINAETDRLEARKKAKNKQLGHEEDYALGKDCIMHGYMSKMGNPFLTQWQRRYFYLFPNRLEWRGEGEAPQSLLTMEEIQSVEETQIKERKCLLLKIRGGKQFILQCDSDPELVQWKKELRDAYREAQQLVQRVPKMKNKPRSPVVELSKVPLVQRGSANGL
Summary of the method: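 GRK2 (15 nM 2× enzyme solution) was preincubated 15 min with compound, then reacted 180 min at room temperature with 2× mix of 20 μM ATP plus GRKtide in HEPES pH 7.5, MgCl2, Tween-20, DTT. ADP was detected by ADP-Glo luminescence. Percent inhibition was normalised to enzyme and no-enzyme controls, with dose-response curves from threefold dilutions starting at 100 μM.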

[2] = system: PAXF1657 control empty vector cell line; experiment: 7-day proliferation assay, PAXF1657 control empty vector cell line (Example 9); type: cell-based; conditions: 168 h; Cell Line: PAXF1657 empty vector (EV) cell line; 7-day; read-out: C: 7-day proliferation assay: IC50 GeoMean
Summary of the method: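 500 cells/well, RPMI1640 + 10% H.I. FBS, adhered overnight at 37° C. Compound 10-pt dilution, 30 μM-0.0002 μM final, 0.3% DMSO. 3 d, media + compound replaced, further 4 d. Viability by CellTiter-Glo; untreated plates read at time of dosing.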

[3] = Enzyme Assay A, ADPGlo (Example 8)

COc1ccccc1[C@H](C)NC(=O)c1cccc(NCc2nnc(-c3ccncn3)n2C)c1
IC50 [1, 3]: 94 nM | IC50 [2]: > 10000 nM

Cn1cc(-c2cc(CNC(=O)c3cccc(NCc4nnc(-c5ccncn5)n4C)c3)ccn2)cn1
IC50 [1, 3]: 17 nM | IC50 [2]: > 30000 nM

Cn1c(CNc2cccc(C(=O)N[C@H]3CCOc4ccc(C(F)(F)F)cc43)c2)nnc1-c1ccncn1
IC50 [1, 3]: 834 nM | IC50 [2]: 28500 nM

Cn1c(CNc2cccc(C(=O)NC(CCO)c3ccccc3F)c2)nnc1-c1ccncn1 (stereo not drawn)
IC50 ([1]; ADPGlo GRK2 enzyme assay): 35.6 nM | IC50 [2]: 536 nM

O=C(NCc1nccn1C(F)F)c1cccc(NCc2nnc(-c3ccncc3)[nH]2)c1
IC50 [1, 3]: 14 nM | IC50 [2]: 2880 nM

Cn1c(CNc2cccc(C(=O)NCc3ccccc3Cn3cncn3)c2)nnc1-c1ccncn1
IC50 ([1]; ADPGlo GRK2 enzyme assay): 55.7 nM | IC50 [2]: 7410 nM

Cc1cccnc1C(C)(C)NC(=O)c1cccc(NCc2nnc(-c3ccncn3)n2C)c1
IC50 [1, 3]: 630 nM | IC50 [2]: > 10000 nM

Cn1c(CNc2cccc(C(=O)NCc3ccccc3C(F)(F)F)c2)nnc1-c1ccncc1F
IC50 ([1]; ADPGlo GRK2 enzyme assay): 39.1 nM | IC50 [2]: > 2320 nM

CCn1ncc(Cl)c1CNC(=O)c1cccc(NCc2nnc(-c3ccncn3)n2C)c1
IC50 [1, 3]: 16 nM | IC50 [2]: > 10000 nM

Cn1c(CNc2cccc(C(=O)NCc3cccnc3Cl)c2)nnc1-c1ccncn1
IC50 ([1]; ADPGlo GRK2 enzyme assay): 27.6 nM | IC50 [2]: 506 nM

Cc1cccnc1[C@H](C)NC(=O)c1cccc(NCc2nnc(-c3ccncn3)n2C)c1
IC50 ([1]; ADPGlo GRK2 enzyme assay): 15 nM | IC50 [2]: > 30000 nM

Cn1c(CNc2cccc(C(=O)NCc3c(F)cccc3NS(C)(=O)=O)c2)nnc1-c1ccncn1
IC50 ([1]; ADPGlo GRK2 enzyme assay): 9.42 nM | IC50 [2]: 3250 nM

O=C(N[C@@H]1COc2cc(F)ccc21)c1cccc(NCc2nnc(-c3ccncn3)n2CCO)c1
IC50 [1, 3]: 22.4 nM | IC50 [2]: 25.4 nM

Cn1c(CNc2cc(C(=O)N[C@H]3COc4cc(F)ccc43)ccn2)nnc1-c1ccncn1
IC50 ([1]; ADPGlo GRK2 enzyme assay): 118 nM | IC50 [2]: 1930 nM

CC1CC(NC(=O)c2cccc(NCc3nnc(-c4ccncc4)[nH]3)c2)c2ncnn21 (stereo not drawn)
IC50 [1, 3]: 37 nM | IC50 [2]: > 10000 nM

CCCn1c(CNc2cccc(C(=O)N[C@@H](C)c3cccc(OC)c3)c2)nnc1-c1ccncn1
IC50 ([1]; ADPGlo GRK2 enzyme assay): 14.1 nM | IC50 [2]: > 30000 nM

Cn1c(CNc2cccc(C(=O)NCc3ccccc3CN3CCCC3=O)c2)nnc1-c1ccncn1
IC50 [1, 3]: 49 nM | IC50 [2]: > 10000 nM

COc1ncccc1CNC(=O)c1cccc(NCc2nnc(-c3ccncn3)n2C)c1
IC50 [1, 3]: 70 nM | IC50 [2]: > 10000 nM

Cn1c(CNc2cccc(C(=O)NC3CCS(=O)(=O)c4ccccc43)c2)nnc1-c1ccncn1 (stereo not drawn)
IC50 ([1]; ADPGlo GRK2 enzyme assay): 18.2 nM | IC50 [2]: 2790 nM

CC(NC(=O)c1cccc(NCc2nnc(-c3ccncc3)[nH]2)c1)c1cnco1 (stereo not drawn)
IC50 [1, 3]: 24 nM | IC50 [2]: > 10000 nM

O=C(NCc1ccccc1-n1cncn1)c1cccc(NCc2nnc(-c3ccncc3)[nH]2)c1
IC50 [1, 3]: 19 nM | IC50 [2]: > 10000 nM

Cn1c(CNc2cccc(C(=O)NCc3cccc(C#N)c3F)c2)nnc1-c1ccncn1
IC50 [1, 3]: 30 nM | IC50 [2]: > 10000 nM

CCCn1c(CNc2cccc(C(=O)N[C@H]3COc4cc(F)ccc43)c2)nnc1-c1ccncn1
IC50 [1, 3]: 10.5 nM | IC50 [2]: > 30000 nM

Cn1c(CNc2cccc(C(=O)NCc3ccccc3S(=O)(=O)N3CCCC3)c2)nnc1-c1ccncn1
IC50 ([1]; ADPGlo GRK2 enzyme assay): 26.9 nM | IC50 [2]: 2170 nM

O=C(NC1CCCn2ncnc21)c1cccc(NCc2nnc(-c3ccncc3)[nH]2)c1 (stereo not drawn)
IC50 [1, 3]: 20 nM | IC50 [2]: > 10000 nM

Cc1ccncc1C(C)NC(=O)c1cccc(NCc2nnc(-c3ccncn3)n2C)c1 (stereo not drawn)
IC50 [1, 3]: 50 nM | IC50 [2]: 537 nM

COc1ccnc(CNC(=O)c2cccc(NCc3nnc(-c4ccncn4)n3C)c2)c1F
IC50 [1, 3]: 200 nM | IC50 [2]: > 10000 nM

Cn1c(CNc2cccc(C(=O)NCc3c(F)ccc4[nH]cnc34)c2)nnc1-c1ccncn1
IC50 ([1]; ADPGlo GRK2 enzyme assay): 19.2 nM | IC50 [2]: 22600 nM

C[C@H](NC(=O)c1cccc(NCc2nnc(-c3ccncn3)n2C)c1)c1cncs1
IC50 [1, 3]: 410 nM | IC50 [2]: > 10000 nM

Cn1c(CNc2cccc(C(=O)C[C@H]3CCCc4cccnc43)c2)nnc1-c1ccncn1
IC50 [1, 3]: 20 nM | IC50 [2]: 224 nM

CC1Oc2ccccc2C1NC(=O)c1cccc(NCc2nnc(-c3ccncn3)n2C)c1 (stereo not drawn)
IC50 ([1]; ADPGlo GRK2 enzyme assay): 7.43 nM | IC50 [2]: 1790 nM

Cn1c(CNc2cccc(C(=O)N[C@H]3CCOc4c(Cl)cccc43)c2)nnc1-c1ccncc1
IC50 [1, 3]: 32.1 nM | IC50 [2]: > 30000 nM

Cn1c(CNc2cccc(C(=O)N[C@@H](CO)c3cc(F)ccc3F)c2)nnc1-c1ccncn1
IC50 [1, 3]: 10 nM | IC50 [2]: > 30000 nM

CCCn1c(CNc2cccc(C(=O)N[C@@H]3COc4cc(F)ccc43)c2)nnc1-c1ccncn1
IC50 [1, 3]: 3.35 nM | IC50 [2]: > 30000 nM

Cn1c(CNc2cccc(C(=O)NCc3cncc4c3CCC4)c2)nnc1-c1ccncn1
IC50 ([1]; ADPGlo GRK2 enzyme assay): 15.3 nM | IC50 [2]: > 11700 nM

Cc1ccnc(CNC(=O)c2cccc(NCc3nnc(-c4ccncn4)n3C)c2)c1F
IC50 ([1]; ADPGlo GRK2 enzyme assay): 50.2 nM | IC50 [2]: > 30000 nM

Cn1c(CNc2cccc(C(=O)N[C@H](CCO)c3ccccc3)c2)nnc1-c1ccncn1
IC50 [1, 3]: 9.54 nM | IC50 [2]: 4190 nM

Cn1c(CNc2cccc(C(=O)NCc3cccc4c3CCNC4)c2)nnc1-c1ccncn1
IC50 ([1]; ADPGlo GRK2 enzyme assay): 18.4 nM | IC50 [2]: > 30000 nM

Cn1ccc(CNC(=O)c2cccc(NCc3nnc(-c4ccncn4)n3C)c2)n1
IC50 [1, 3]: 60 nM | IC50 [2]: 1290 nM

Cn1c(CNc2cccc(C(=O)NCc3ccccc3N3CCNCC3)c2)nnc1-c1ccncn1
IC50 ([1]; ADPGlo GRK2 enzyme assay): 65.8 nM | IC50 [2]: 7890 nM

Cn1c(CNc2cccc(C(=O)NC3CCOc4ncccc43)c2)nnc1-c1ccncn1 (stereo not drawn)
IC50 ([1]; ADPGlo GRK2 enzyme assay): 56.7 nM | IC50 [2]: > 30000 nM

Cc1ccc2c(c1)OCC[C@H]2NC(=O)c1cccc(NCc2nnc(-c3ccncn3)n2C)c1
IC50 [1, 3]: 9.99 nM | IC50 [2]: 648 nM

Cc1ccc2c(c1)OCC[C@@H]2NC(=O)c1cccc(NCc2nnc(-c3ccncn3)n2C)c1
IC50 [1, 3]: > 1000 nM | IC50 [2]: 2580 nM

COc1ccc2c(c1)[C@H](NC(=O)c1cccc(NCc3nnc(-c4ccncn4)n3C)c1)CCO2
IC50 [1, 3]: 15.2 nM | IC50 [2]: > 30000 nM

Cn1c(CNc2cccc(C(=O)NCc3ccccc3)c2)nnc1-c1ccncn1
IC50 [1, 3]: 20 nM | IC50 [2]: > 10000 nM

Cc1ncccc1CNC(=O)c1cccc(NCc2nnc(-c3ccncn3)n2C)c1
IC50 [1, 3]: 16 nM | IC50 [2]: 1490 nM

COC[C@H](NC(=O)c1cccc(NCc2nnc(-c3ccncc3)[nH]2)c1)c1ccccn1
IC50 [1, 3]: 11 nM | IC50 [2]: 405 nM

CN(C)S(=O)(=O)c1cccc(F)c1CNC(=O)c1cccc(NCc2nnc(-c3ccncn3)n2C)c1
IC50 ([1]; ADPGlo GRK2 enzyme assay): 5.78 nM | IC50 [2]: 263 nM

Cn1c(CNc2cccc(C(=O)NCc3nccc(Cl)c3F)c2)nnc1-c1ccncn1
IC50 [1, 3]: 220 nM | IC50 [2]: < 39 nM

CC(NC(=O)c1cccc(NCc2nnc(-c3ccncn3)n2C)c1)c1ccncc1F (stereo not drawn)
IC50 [1, 3]: 15 nM | IC50 [2]: 103 nM

O=C(NCc1ccncc1)c1cccc(NCc2nnc(-c3ccncc3)[nH]2)c1
IC50 [1, 3]: 12 nM | IC50 [2]: 5720 nM

Cc1nn(C)c(C)c1CNC(=O)c1cccc(NCc2nnc(-c3ccncn3)n2C)c1
IC50 [1, 3]: 26 nM | IC50 [2]: > 10000 nM

COCCOc1ccc(CNC(=O)c2cccc(NCc3nnc(-c4ccncn4)n3C)c2)cc1
IC50 [1, 3]: 20.4 nM | IC50 [2]: > 14200 nM

CN(C)c1ccccc1CNC(=O)c1cccc(NCc2nnc(-c3ccncn3)n2C)c1
IC50 ([1]; ADPGlo GRK2 enzyme assay): 14.8 nM | IC50 [2]: 1610 nM

Cn1c(CNc2cccc(C(=O)NC3(c4cccnc4)CC3)c2)nnc1-c1ccncn1
IC50 [1, 3]: 200 nM | IC50 [2]: 583 nM

Cc1nc(C)c(CNC(=O)c2cccc(NCc3nnc(-c4ccncn4)n3C)c2)s1
IC50 [1, 3]: 26 nM | IC50 [2]: > 10000 nM

Cn1c(CNc2cccc(C(=O)N[C@H](CCO)c3ccccc3)c2)nnc1-c1ccncc1F
IC50 ([1]; ADPGlo GRK2 enzyme assay): 18 nM | IC50 [2]: > 30000 nM

Cn1c(CNc2cccc(C(=O)NCc3cccc4cccnc34)c2)nnc1-c1ccncn1 [drawing 359]
IC50 [1, 3]: 61 nM | IC50 [2]: 3640 nM

Cc1cncc(C(C)NC(=O)c2cccc(NCc3nnc(-c4ccncn4)n3C)c2)c1 (stereo not drawn)
IC50 ([1]; ADPGlo GRK2 enzyme assay): 16.2 nM | IC50 [2]: 784 nM

Cn1c(CNc2cccc(C(=O)NCc3ccccc3CO)c2)nnc1-c1ccncn1
IC50 ([1]; ADPGlo GRK2 enzyme assay): 18.4 nM | IC50 [2]: 1560 nM

Cn1ccnc1C(NC(=O)c1cccc(NCc2nnc(-c3ccncn3)n2C)c1)C1CC1 (stereo not drawn)
IC50 ([1]; ADPGlo GRK2 enzyme assay): 52.9 nM | IC50 [2]: 3750 nM

COc1cccc(C)c1CNC(=O)c1cccc(NCc2nnc(-c3ccncn3)n2C)c1
IC50 ([1]; ADPGlo GRK2 enzyme assay): 8.2 nM | IC50 [2]: 246 nM

COc1cccc(C(C)NC(=O)c2cccc(NCc3nnc(-c4ccncn4)n3C)c2)c1 (stereo not drawn) [drawing 381]
IC50 [1, 3]: 12 nM | IC50 [2]: 377 nM
